Assays:
[1] = system: ALS-iPS cell-derived neurons; experiment: Gene expression category analysis (gene ontology) in ALS-iPS cell-derived neurons; format: cell-based, human; settings: AA addition vs non-addition; FIG. 13A
insoluble TDP-43 = experiment: Amount of TDP-43 protein insoluble in 1% Triton X-100 solution in ALS-MNs; format: cell-based, human; settings: AA addition, FIGS. 12G and H
NEFM = NEFM expression level in ALS-MNs (quantitative PCR); format: cell-based, human; settings: AA addition
ALS-MNs [2] = experiment: MDA (malondialdehyde)-modified protein in total protein by Western blotting; format: cell-based, human; settings: AA addition vs non-addition, particularly proteins of about 30 kDa to 50 kDa, FIG. 14
Text: Sequentially, to confirm an antioxidant action of AA, the amount of the protein modified with MDA (malondialdehyde) in the total protein was confirmed by Western blotting using 5 to 15% gradient gel in the AA addition group and the AA non-addition group of control MNs or ALS-MNs. […] This tendency was particularly strong in proteins having a size of about 30 kDa to 50 kDa.

[3] = system: TNFα/NF-κB, andorogen receptor and α6β4 integrin pathways; experiment: Signal transduction pathway analysis in ALS-iPS cell-derived neurons; format: cell-based, human; settings: AA addition vs non-addition; FIG. 13B
NEFL = NEFL expression level in ALS-MNs (quantitative PCR); format: cell-based, human; settings: AA addition
ALS-MNs [4] = experiment: Length of neurite in HB9::GFP-positive ALS-MNs (IN Cell Analyzer 2000); format: cell-based, human; settings: AA addition vs control group; FIGS. 12E and F
ALS-MNs [5] = system: ALS-MNs
ALS-MNs [6] = experiment: Arsenite-induced cell death of iPS cell-derived ALS motor neurons (HB9::GFP-positive cell number); format: cell-based, human; settings: added 16 or 48 hr before arsenite addition, FIG. 12D

## CCCCCCCCCCCCCCCc1cccc(O)c1C(=O)O [anacardic acid]
[1]
  factors relating to intermediate filament cytoskeleton, intermediate filament and keratin filament: increased
  factors relating to translation, RNP complex, RNA binding, RNA metabolism pathway, RNA processing, RNA splicing and spliceosomal complex: decreased
Insoluble TDP-43
  amount of insoluble TDP-43: decreased
NEFM
  expression level of NEFM: increased
ALS-MNs [2]
  amount of MDA-modified protein in the total protein: decreased the amount
[3]
  TNFα/NF-κB, andorogen receptor and α6β4 integrin pathways: decreased
NEFL
  expression level of NEFL: increased
ALS-MNs [4]
  length of neurite in ALS-MNs: significantly increased

## arsenite
ALS-MNs [5]
  RNA granule formation: promotion
  insoluble TDP-43: increase
  number of cells subjected to EthD-1-positive injury: significantly high

## CC(/C=C/C(=O)NO)=C\[C@@H](C)C(=O)c1ccc(N(C)C)cc1 [trichostatin A]
ALS-MNs [6]; 3 μM
  suppression of arsenite-induced cell death of ALS-MNs: did not show such action

## CO[C@]1(C)C[C@@]2(CO2)[C@H](O)[C@@H](/C=C/C(C)=C/C[C@@H]2O[C@H](C)[C@H](NC(=O)/C=C\[C@H](C)OC(C)=O)C[C@@H]2C)O1 [splicesostatin A]
ALS-MNs [6]; 100 ng/ml
  suppression of arsenite-induced cell death of ALS-MNs: did not show such action

From patent US20150045330A1, “PROPHYLACTIC AND THERAPEUTIC DRUG FOR AMYOTROPHIC LATERAL SCLEROSIS AND METHOD OF SCREENING THEREFOR” (priority 2012, published 2015)
